{
  "source": "paper PMC7932537",
  "about": "“Quantitative profiling of protease specificity” (PLoS Computational Biology, 2021)",
  "key": {"MMP-2": {"system": "MMP-2", "experiment": "Substrate phage display with NGS: relative probability (RP) of P3-P1' tetramer clusters", "assay_type": "biochemical, human", "conditions": "for avg_RP: MMP2 - no binning"}, "MMP-9": {"system": "MMP-9", "experiment": "Substrate phage display with NGS: relative probability (RP) of P3-P1' tetramer clusters", "assay_type": "biochemical, human", "conditions": "for relative_probability: tetramer clusters unique to the MMP-9 selectome, MMP-9 RP"}, "[1]": {"conditions": "RP of the P3-P1' tetramer cluster contained in the hexamer, 200 nM MMP-2, 2 h, 37°C, two rounds of selection"}, "[2]": {"conditions": "MMP9, RP of the P3-P1' tetramer contained in the hexamer substrate (substrate phage display, NGS)"}, "[3]": {"conditions": "RP of matching tetramer, common MMP2-9 selectome"}, "[4]": {"conditions": "MMP9, RP of the P3-P1' tetramer matching the MS detected cleavage, RP above 4.7, substrate phage display with NGS"}, "[5]": {"conditions": "RP of matching tetramer, common MMP2-9 selectome, RP above KL threshold"}, "[6]": {"conditions": "average relative probability of the tetramer, redundant tetramers averaged out"}, "[7]": {"conditions": "tetramer projected onto MMP-9 cleavage sites determined by Prudova et al. (2010)"}, "[8]": {"conditions": "RP of the P3-P1' tetramer, MMP2 substrate phage display/NGS, tetramers of physiologic MEROPS substrates common to MMP2 and MMP9"}, "[9]": {"conditions": "RP of the P3-P1' tetramer, MMP9 substrate phage display/NGS, tetramers of physiologic MEROPS substrates common to MMP2 and MMP9"}, "[10]": {"conditions": "RP according to MMP2, P3-P1' tetramer of unique physiologic MMP2 substrates from MEROPS"}, "[11]": {"conditions": "tetramer probability in MMP9 set / naive library, 200 nM protease, 2 h, 37°C"}, "[12]": {"conditions": "RP according to MMP9, P3-P1' tetramer of unique physiologic MMP9 substrates from MEROPS"}, "[13]": {"conditions": "RP of the P3-P1' tetramer in MMP-9 substrate phage display/NGS, tetramer annotation of MMP-9 cleavage sites (octamers P4-P4') collected in MEROPS database"}, "[14]": {"conditions": "rank of the P3-P1' tetramer by RP in MMP-9 substrate phage display/NGS, tetramer annotation of MMP-9 cleavage sites (octamers P4-P4') collected in MEROPS database"}},
  "data": [
    {"substance": "HPVSMV", "values": [
      {"measurement": "relative probability (RP)", "setting": "MMP-2; [1]", "result": 30.0644},
      {"measurement": "relative probability (RP)", "setting": "MMP-9; [2]", "result": 41.2029}
    ]},
    {"substance": "PQLL", "values": [
      {"measurement": "avg_RP", "setting": "MMP-2; average relative probability (RP) of the P3-P1' tetramer, redundant tetramers have been averaged out", "result": 22.6078},
      {"measurement": "relative probability (RP) (acc.to MMP2)", "setting": "MMP-2; [3]", "result": 22.61},
      {"measurement": "relative probability (RP)", "setting": "MMP-9; [4]", "result": 32.66},
      {"measurement": "relative probability (RP) (acc.to MMP9)", "setting": "MMP-9; [5]", "result": 32.66}
    ]},
    {"substance": "VQAM", "values": [
      {"measurement": "relative probability (RP) (acc.to MMP2)", "setting": "MMP-2; [3]", "result": 21.36},
      {"measurement": "relative probability (RP)", "setting": "MMP-9; [4]", "result": 21.63},
      {"measurement": "relative probability (RP) (acc.to MMP9)", "setting": "MMP-9; [5]", "result": 21.63}
    ]},
    {"substance": "GPRGLK", "values": [
      {"measurement": "relative probability (RP)", "setting": "MMP-2; [1]", "result": 35.2511},
      {"measurement": "relative probability (RP)", "setting": "MMP-9; [2]", "result": 47.3825}
    ]},
    {"substance": "PRML [P3-P1' tetramer cluster]", "values": [
      {"measurement": "avg_RP", "setting": "MMP-2; [6]", "result": 30.5973},
      {"measurement": "relative probability (RP)", "setting": "MMP-9; [7]", "result": 42.29}
    ]},
    {"substance": "PSQM", "values": [
      {"measurement": "relative probability (RP) (acc.to MMP2)", "setting": "MMP-2; [8]", "result": 27.24},
      {"measurement": "relative probability (RP) (acc.to MMP9)", "setting": "MMP-9; [9]", "result": 37.02}
    ]},
    {"substance": "MSPANI", "values": [
      {"measurement": "relative probability (RP)", "setting": "MMP-2; [1]", "result": 33.5547},
      {"measurement": "relative probability (RP)", "setting": "MMP-9; [2]", "result": 46.3162}
    ]},
    {"substance": "PSPADI", "values": [
      {"measurement": "relative probability (RP)", "setting": "MMP-2; [1]", "result": 23.2522},
      {"measurement": "relative probability (RP)", "setting": "MMP-9; [2]", "result": 25.0899}
    ]},
    {"substance": "LSPFGQ", "values": [
      {"measurement": "relative probability (RP)", "setting": "MMP-2; [1]", "result": 16.8686},
      {"measurement": "relative probability (RP)", "setting": "MMP-9; [2]", "result": 36.0266}
    ]},
    {"substance": "AIHI", "values": [
      {"measurement": "relative probability (RP) (acc.to MMP2)", "setting": "MMP-2; [8]", "result": 4.71},
      {"measurement": "relative probability (RP) (acc.to MMP9)", "setting": "MMP-9; [9]", "result": 5.64}
    ]},
    {"substance": "IGRF", "values": [
      {"measurement": "MMP2 relative probability (RP)", "setting": "MMP-2; MMP2 tetramers from unique substrates, unrounded values", "result": 13.8957},
      {"measurement": "Relative probability (RP) rank", "setting": "MMP-2; [10]", "result": 3460},
      {"measurement": "relative probability (RP)", "setting": "MMP-2; [10]", "result": 13.9},
      {"measurement": "corresponding MMP9 relative probability (RP)", "setting": "MMP-9; MMP2 tetramers from unique substrates, RP of same tetramer for MMP9", "result": 0.4689}
    ]},
    {"substance": "PVEL", "values": [
      {"measurement": "relative probability (RP) (acc.to MMP2)", "setting": "MMP-2; [8]", "result": 25.47},
      {"measurement": "relative probability (RP) (acc.to MMP9)", "setting": "MMP-9; [9]", "result": 35.1}
    ]},
    {"substance": "PMAM [P3-P1' tetramer cluster]", "values": [
      {"measurement": "avg_RP", "setting": "MMP-2; [6]", "result": 30.2676},
      {"measurement": "relative probability (RP)", "setting": "MMP-9; [11]", "result": 51.1831}
    ]},
    {"substance": "PFKI", "values": [
      {"measurement": "relative probability (RP)", "setting": "MMP-9; [4]", "result": 34.84}
    ]},
    {"substance": "PRGI [P3-P1' tetramer cluster]", "values": [
      {"measurement": "relative probability (RP)", "setting": "MMP-9; [7]", "result": 47.2}
    ]},
    {"substance": "PMWM [P3-P1' tetramer cluster]", "values": [
      {"measurement": "relative probability (RP)", "setting": "MMP-9; [11]", "result": 52.3808}
    ]},
    {"substance": "VGSL [P3-P1' tetramer cluster]", "values": [
      {"measurement": "relative probability (RP)", "setting": "MMP-9; [7]", "result": 7.47}
    ]},
    {"substance": "PKAS [P3-P1' tetramer cluster]", "values": [
      {"measurement": "relative probability (RP)", "setting": "MMP-9; [7]", "result": 25.84}
    ]},
    {"substance": "PWWM [P3-P1' tetramer cluster]", "values": [
      {"measurement": "relative_probability", "setting": "MMP-9", "result": 45.99}
    ]},
    {"substance": "PMPL [P3-P1' tetramer cluster]", "values": [
      {"measurement": "relative probability (RP)", "setting": "MMP-9; [11]", "result": 51.2509}
    ]},
    {"substance": "GVMQ", "values": [
      {"measurement": "Relative probability (RP) rank", "setting": "MMP-9; [12]", "result": 91467},
      {"measurement": "relative probability (RP)", "setting": "MMP-9; [12]", "result": 0}
    ]},
    {"substance": "PAPL [P3-P1' tetramer cluster]", "values": [
      {"measurement": "relative probability (RP)", "setting": "MMP-9; [7]", "result": 46.24}
    ]},
    {"substance": "IRYV", "values": [
      {"measurement": "relative probability (RP)", "setting": "MMP-9; [4]", "result": 10.4}
    ]},
    {"substance": "PVPQ [P3-P1' tetramer cluster]", "values": [
      {"measurement": "relative probability (RP)", "setting": "MMP-9; [7]", "result": 29.84}
    ]},
    {"substance": "PWWI [P3-P1' tetramer cluster]", "values": [
      {"measurement": "relative_probability", "setting": "MMP-9", "result": 43.44}
    ]},
    {"substance": "IIGL", "values": [
      {"measurement": "Relative probability (RP) rank", "setting": "MMP-9; [12]", "result": 15777},
      {"measurement": "relative probability (RP)", "setting": "MMP-9; [12]", "result": 0.98}
    ]},
    {"substance": "AKRF", "values": [
      {"measurement": "relative probability (RP)", "setting": "MMP-9; tetramer annotation of MMP-9 cleavage sites in physiologic substrates from MEROPS", "result": 0.43}
    ]},
    {"substance": "PVGI [P3-P1' tetramer cluster]", "values": [
      {"measurement": "relative probability (RP)", "setting": "MMP-9; [7]", "result": 46.04}
    ]},
    {"substance": "PFPL [P3-P1' tetramer cluster]", "values": [
      {"measurement": "relative probability (RP)", "setting": "MMP-9; [7]", "result": 49.54}
    ]},
    {"substance": "PFAS", "values": [
      {"measurement": "relative probability (RP)", "setting": "MMP-9; [4]", "result": 24.05}
    ]},
    {"substance": "PMAA", "values": [
      {"measurement": "relative probability (RP)", "setting": "MMP-9; [4]", "result": 16.94}
    ]},
    {"substance": "AAAA", "values": [
      {"measurement": "relative probability (RP)", "setting": "MMP-9; [13]", "result": 0.34},
      {"measurement": "Relative probability (RP) rank", "setting": "MMP-9; [14]", "result": 31285}
    ]},
    {"substance": "PFAV [P3-P1' tetramer cluster]", "values": [
      {"measurement": "relative probability (RP)", "setting": "MMP-9; [7]", "result": 43.58}
    ]},
    {"substance": "PWMM [P3-P1' tetramer cluster]", "values": [
      {"measurement": "relative_probability", "setting": "MMP-9", "result": 46.92}
    ]},
    {"substance": "AAAK", "values": [
      {"measurement": "relative probability (RP)", "setting": "MMP-9; [13]", "result": 0},
      {"measurement": "Relative probability (RP) rank", "setting": "MMP-9; [14]", "result": 91823}
    ]},
    {"substance": "ITPL [P3-P1' tetramer cluster]", "values": [
      {"measurement": "relative probability (RP)", "setting": "MMP-9; [7]", "result": 0.92}
    ]}
  ]
}
